Data published in patent publication US12187717B2, “Compound and use thereof in treating autoimmune diseases” (PARENCHYMA BIOTECH INC., priority 2022, dated 2025).

Columns and labels:
[1] = test system: DSS-induced inflammatory bowel disease; experiment: DSS-induced inflammatory bowel disease model: colon mRNA expression (real-time PCR); type: in vivo, C57BL/6 mice
From the text: On the 15th day of the experiment, the colon of the mouse was excised to prepare an mRNA sample. In order to extract mRNA, the colon tissue was ground with a homogenizer to acquire a homogeneous suspension. From the homogeneous suspension, mRNA was extracted by a phenol-chloroform sedimentation method using an easy-spin™ (DNA free) total RNA extraction kit (Intron biotechnology, Cat No. 17221). […] Herein, one (1) fold was set using the normal mouse colon as a control.
The real-time polymerase chain reaction was implemented under the conditions of 45 cycles at an annealing temperature of 58° C. and the following primer sequences were used.
The therapeutic effects of Compound 6 and Comparative Example 1 on inflammatory bowel disease were compared. Inflammatory bowel disease was induced in C57BL/6 mice in the same manner as in Example 4, and after oral administration of 10 mg/kg of Compound 6 and Comparative Example 1 to mice, the expression levels of IL-6 and S100a9 mRNA were confirmed in colon tissues.

[2] = test system: CYP1A1; experiment: Induction of CYP1A1 mRNA expression in HepG2 (real-time PCR); type: cell-based, Human; conditions: HepG2, 1 μM, 24 hours, vs control (vehicle)
Description: In order to confirm target specificity of the compounds of an embodiment of the present invention prepared as above, it was confirmed whether the expression levels of CYP1A1 mRNA and CYP1A1 protein, which are AHR target genes, were increased.
After recovering HepG2 under culture in DMEM-fetal bovine serum (FBS) 10% medium and then confirming that the survival rate is 97% or more through trypan blue staining, the recovered product was centrifuged at a speed of 1200 rpm for 5 minutes at room temperature, and the cells were prepared by resuspending them in DMEM-fetal calf serum 10% medium at 3×10^5 cells/ml. Thereafter, the cells were dispensed onto a 60 mm dish by 3 ml, and each dish was treated with 50 μl of Compounds 6, 21, 32 and 39 at a concentration of 1 μM diluted in DMEM medium, and then cultured in a cell incubator (5% CO2 incubator) for 24 hours. As a control, 50 μl of 0.05% dimethylsulfoxide (DMSO)/DMEM medium was used for treatment.
The cultured cells were recovered to prepare an mRNA sample. […] From the separated RNA, cDNA was synthesized by reverse transcription, and the expression of CYP1A1 was confirmed through a real-time polymerase chain reaction (PCR) using iQ SYBR-Green Supermix (Bio-rad) in a CFX96 (Bio-rad) detection system. […] Herein, one (1) fold was set using the control.
The real-time polymerase chain reaction was performed under the conditions of 45 cycles at an annealing temperature of 58° C., wherein the following primer sequences were used.

[3] = test system: graft-versus-host disease; experiment: Graft-versus-host disease model (B6->BDF1); type: in vivo, BDF1 mice; conditions: 10 mg/kg oral daily, 3rd to 14th days
Description: The spleen of C57BL/6 mice (8 to 12 weeks old, female, 18±3 g) was excised, pulverized by adding RPMI medium, and then passed through a 40 μm cell strainer (BD Falcon), thereby obtaining a single cell suspension. The single cell suspension was centrifuged (1200 rpm, 5 minutes), and after discarding the supematant, 1 ml of ACK (ammonium chloride/potassium bicarbonate) lysis buffer (0.15 M NH4Cl, 1 mM KHCO3, 0.1 mM Na2 EDTA) was added, followed by stirring for 1 minute and then washing the same with RPMI medium. After centrifugation, the cell suspension was reacted on mouse CD90.2 microbeads (Miltenyi Biotec, Cat No. 130-121-278) at 4° C. for 20 minutes. After complementation of the reaction, the cell suspension was centrifuged, washed with 10 ml of autoMACS® Running Buffer (Miltenyi Biotec, Cat No. 130-091-221), and then resuspended with 3 ml of autoMACS® Running Buffer. Then, CD90.2^+ T cells were obtained from the cell suspension using Auto MACS pro (Miltenyi Biotec) (positive selection). […]
The graft-versus-host disease severity index was evaluated at an interval of 3 to 4 days by visual observation in a severity index system that was classified into a total of 10 points with 0 to 2 points for each item of weight reduction, hair condition, posture, activity and skin change.

[4] = biological target: CYP2C9 (Homo sapiens, UniProt P11712); experiment: CYP isoenzyme activity; type: in vitro ADME; conditions: 10 μM
[5] = biological target: CYP2C19 (Homo sapiens, UniProt P33261); experiment: CYP isoenzyme activity; type: in vitro ADME; conditions: 10 μM
[6] = 10 mg/kg oral daily, 15th day, compared to solvent control
[7] = 10 mg/kg oral, compared to Comparative Example 1

CYP2C19, sequence (P33261 whole entry): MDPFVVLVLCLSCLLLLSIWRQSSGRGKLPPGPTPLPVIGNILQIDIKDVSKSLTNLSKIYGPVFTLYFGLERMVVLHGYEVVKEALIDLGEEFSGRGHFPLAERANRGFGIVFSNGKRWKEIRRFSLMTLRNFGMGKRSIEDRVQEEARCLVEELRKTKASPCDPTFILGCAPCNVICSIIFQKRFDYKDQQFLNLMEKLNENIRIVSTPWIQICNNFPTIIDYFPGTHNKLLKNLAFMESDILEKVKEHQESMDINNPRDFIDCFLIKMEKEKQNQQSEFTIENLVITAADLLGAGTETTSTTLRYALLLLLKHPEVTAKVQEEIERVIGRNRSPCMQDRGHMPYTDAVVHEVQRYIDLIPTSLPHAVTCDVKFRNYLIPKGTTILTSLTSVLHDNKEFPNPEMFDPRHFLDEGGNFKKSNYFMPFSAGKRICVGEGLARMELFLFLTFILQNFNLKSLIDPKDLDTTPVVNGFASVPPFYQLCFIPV
CYP2C9, sequence (P11712 whole entry): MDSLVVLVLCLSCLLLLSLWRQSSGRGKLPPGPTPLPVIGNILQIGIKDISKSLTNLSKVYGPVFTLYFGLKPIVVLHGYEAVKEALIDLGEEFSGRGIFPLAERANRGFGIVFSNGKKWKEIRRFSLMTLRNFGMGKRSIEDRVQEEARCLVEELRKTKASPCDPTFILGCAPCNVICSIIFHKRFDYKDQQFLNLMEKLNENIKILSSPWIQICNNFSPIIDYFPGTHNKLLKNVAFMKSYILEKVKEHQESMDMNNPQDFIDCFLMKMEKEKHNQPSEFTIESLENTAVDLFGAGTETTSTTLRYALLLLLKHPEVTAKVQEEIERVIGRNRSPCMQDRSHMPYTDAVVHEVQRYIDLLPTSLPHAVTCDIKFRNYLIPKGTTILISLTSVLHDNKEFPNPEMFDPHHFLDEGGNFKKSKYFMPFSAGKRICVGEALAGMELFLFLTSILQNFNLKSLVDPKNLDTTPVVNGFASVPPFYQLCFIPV

O=C(Cc1c[nH]c2ccc(Cl)cc12)Nc1nc2ccc(N3CCOCC3)cc2s1 [Compound 6, 2-(5-chloro-1H-indol-3-yl)-N-(6-morpholinobenzo[d]thiazol-2-yl)acetamide]
Foxp3 expression level in colon lesions [1, 6]: significantly increased
IL-1β expression level in colon lesions [1, 6]: significantly reduced
IL-6 expression level in colon lesions [1, 6]: significantly reduced
IL-10 expression level in colon lesions [1, 6]: significantly increased
IL-17A expression level in colon lesions [1, 6]: significantly reduced
Muc2 expression level in colon lesions [1, 6]: significantly increased
Reg3b expression level in colon lesions [1, 6]: significantly increased
S100a8 expression level in colon lesions [1, 6]: significantly reduced
S100a9 expression level in colon lesions [1, 6]: significantly reduced
TNF-α expression level in colon lesions [1, 6]: significantly reduced
IL-6 mRNA expression level in colon tissues [1, 7]: significantly decreased
S100a9 mRNA expression level in colon tissues [1, 7]: significantly decreased
CYP1A1 mRNA expression level [2]: significantly induced
colon tissue inflammatory pathology index [3]: significantly decreased
severity index of graft-versus-host disease ([3]; total of 10 points, solvent control 8±1): 2.2±1.2
CYP2C9 activity [4]: 94.5 % of Control Activity
CYP2C19 activity [5]: 93.1 % of Control Activity
inhibition of the enzyme activity of CYP2C19 [5]: little effect
